This note sets out measurements from US5696089A, “Histidine substituted growth hormone releasing factor analogs” (Roche Vitamins Inc., priority 1995, dated 1997).

Where a SMILES comes first, the peptide text is derived from it. Where no end group is shown, it is not given here. The star is where a group is joined. Desaminohistidyl = O=C(CCc1c[nH]cn1)*

Data set [1] has as its system rat pituitary cells. It is filed as cell-based. The method, then:
The biological activity of the novel peptides were compared with that of a synthetic standard of the natural sequence of GRF(1-44)-NH2 which was isolated from a human pancreatic tumor of an individual suffering from acromegaly (Salk Institute standard hp-GRF-NH2 (NL-A-10)). The assay for biological activity, which is based on the ability to stimulate production of growth hormone in rat pituitary cells in tissue culture, was performed in the following manner. Pituitaries from 30-40 male Sprague-Dawley rats (175 g) were removed aseptically after decapitation. The anterior lobes were collected, washed 3 times in sterile Hepes buffer (0.025M)(pH 7.35) and dispersed at 37° C. in 20-30 ml Hepes buffer (pH 7.35) containing collagenasa (4 mg per ml) and Dispase (Protease grande II, 2 mg per ml). After gentle 80 min. vortexing and trituration by Pasteur pipette, the dispersed cells were separated by centrifugation (150×g, 4 min.) and re-suspended in Hepes buffer containing neuraminidase (4 μg/ml), and 200 μg/ml ethylenediaminetetraacetic acid (EDTA) disodium salt pH 7.35, for 10 min. The cells were washed twice with plating medium and plated on multiwell-plates (1.5×10^5 cells per ml) using the following defined medium: F-12/DMEM/BGJ(6:3:1) (Gibco: 430-1700/430-1600/320-2591) with 2 g BSA/1., 2.38 g Hepes/1., 50 mg Gentamycin/1 (Schering Co.). The medium in each well was supplemented either with the novel peptide or natural GRF(1-44)-NH2 at concentrations ranging from 3.1 to 200 fmol. per ml. of medium. Control wells contained no supplement. Plating was done with this medium added with 2% fetal calf serum to ensure rapid fixation of the cells. On the fourth day the cells were washed twice with the defined medium without fetal calf serum. Finally 900 μl of defined medium was added to each well plus 100 μl of the same medium containing each individual treatment, in triplicate. After 3 hours of incubation the medium was collected and diluted as required to conduct radioimmuno- assays (RIAs) for rat growth hormone. RIAs were conducted using Sinha's anti-murine GH immune serum and procedures according to the National Pituitary Agency using protein A to precipitate antibody antigen complex.

Data set [2] in a line: In vitro plasma stability by porcine plasma incubation at 37° C. As to conditions: pooled porcine plasma, 100 μg/ml, HPLC after SEP-PAK extraction. It is filed as in vitro ADME. The method, then:
In vitro plasma stability of GRF analogs were determined by porcine plasma incubation at 37° C. Pooled porcine plasma was collected from control pigs and stored at -20° C. GRF analogs of interest were prepared as discussed above. The plasma was first thawed and centrifuged at 3000 rpm for 20 minutes at 4° C. The plasma was then placed in a shaker bath at a temperature of 37° C. and allowed to equilibrate for 10 minutes. GRF analogs were dissolved in water containing 0.1% TFA at a concentration of 2 μg/μl. As soon as the initial equilibration was completed, an analog was added into the plasma sample to a final concentration of 100 μg/ml. Immediately after the addition of a GRF analog, a 1 ml aliquot of plasma sample was withdrawn and acidified with 0.2 ml of 0.1M TFA/H2 O and kept at 0° C. for later solid phase extraction. The remaining plasma samples were incubated in the water bath and 1 ml aliquots were withdrawn at different time periods and acidified by the same procedure described above.
Plasma samples were extracted with SEP-PAK octadecyl columns (Waters Associates). The column cartridge was washed with 2 ml 80% acetic acid followed by 4 ml of 0.01M TFA. After the plasma sample was loaded, the column was washed with 3 ml of 0.1M TFA to remove the excess unbound biological material. The solvent remaining in the cartridges was forced out by two passes of air from a 10 ml syringe. The bound material was then eluted with 80% acetic acid and 3 ml eluate was collected for chromatographic analysis. Two high performance liquid chromatography systems were used. System A: Instrumentation--Perkin-Elmer Series 4 liquid chromatography microprocessor-controlled solvent delivery system, Waters intelligent sample processor (WISP) model 710 (Waters Associates), and a Hewlett-Packard 1040M Diode Assay Detection System. Column--Delta Pak C18, 3.5×150 mm, 5 μm spherical (Nihon Waters Ltd.). Mobile phase-(A) 0.1% TFA in H2 O, (B) 0.1% TFA in 95% acetonitrile and 5% H2 O. Gradient was 34-50% (B) in 60 minutes, flow rate 1 ml/minute, and the detection was at 215 nm. System B: Instrumentation--Waters 600 multi-solvent delivery system, WISP model 712 and LDC spectromonitor III. Column--Vydac 201TP54, C18 4.6×250 mm, 10 μm (The Separations Group). Mobile phase--same as in System A. Gradient max 30% (B) isocratic for 10 minutes, followed by 30-50% (B) gradient for 60 minutes, flow rate was 1 ml/minute, and the detection was at 215 nm. Amino acid analysis was done as described above. Results of plasma half life are found in Table 2.

Turning to `CC[C@H](C)[C@H](NC(=O)[C@H](C)NC(=O)[C@H](CC(=O)O)NC(=O)[C@@H](NC(=O)CCc1c[nH]cn1)C(C)C)C(=O)N[C@@H](Cc1ccccc1)C(=O)N[C@H](C(=O)N[C@@H](CC(N)=O)C(=O)N[C@@H](CO)C(=O)N[C@@H](Cc1ccc(O)cc1)C(=O)N[C@@H](CCCNC(=N)N)C(=O)N[C@@H](CCCCN)C(=O)N[C@H](C(=O)N[C@@H](CC(C)C)C(=O)N[C@@H](C)C(=O)N[C@@H](CCC(N)=O)C(=O)N[C@@H](CC(C)C)C(=O)N[C@@H](CO)C(=O)N[C@@H](C)C(=O)N[C@@H](CCCNC(=N)N)C(=O)N[C@@H](CCCCN)C(=O)N[C@@H](CC(C)C)C(=O)N[C@@H](CC(C)C)C(=O)N[C@@H](CCC(N)=O)C(=O)N[C@@H](CC(=O)O)C(=O)N[C@H](C(=O)N[C@@H](CCSC)C(=O)N[C@@H](CO)C(=O)N[C@@H](CCCNC(=N)N)C(N)=O)[C@@H](C)CC)C(C)C)[C@@H](C)O` [[desNH2 His^1,Val^2,Ala^15]-GRF(1-29)-NH2] (Desaminohistidyl-VDAIFTNSYRKVLAQLSARKLLQDIMSR-NH2), in data set [1], the “Potency of GRF Analogs Relative to GRF(1-44)-NH2” value was 1.21.

Turning to `CC[C@H](C)[C@H](NC(=O)[C@H](C)NC(=O)[C@H](CC(=O)O)NC(=O)[C@H](C)NC(=O)[C@@H](N)Cc1ccc(O)cc1)C(=O)N[C@@H](Cc1ccccc1)C(=O)N[C@H](C(=O)N[C@@H](CC(N)=O)C(=O)N[C@@H](CO)C(=O)N[C@@H](Cc1ccc(O)cc1)C(=O)N[C@@H](CCCNC(=N)N)C(=O)N[C@@H](CCCCN)C(=O)N[C@H](C(=O)N[C@@H](CC(C)C)C(=O)NCC(=O)N[C@@H](CCC(N)=O)C(=O)N[C@@H](CC(C)C)C(=O)N[C@@H](CO)C(=O)N[C@@H](C)C(=O)N[C@@H](CCCNC(=N)N)C(=O)N[C@@H](CCCCN)C(=O)N[C@@H](CC(C)C)C(=O)N[C@@H](CC(C)C)C(=O)N[C@@H](CCC(N)=O)C(=O)N[C@@H](CC(=O)O)C(=O)N[C@H](C(=O)N[C@@H](CCSC)C(=O)N[C@@H](CO)C(=O)N[C@@H](CCCNC(=N)N)C(=O)N[C@@H](CCC(N)=O)C(=O)N[C@@H](CCC(N)=O)C(=O)NCC(=O)N[C@@H](CCC(=O)O)C(=O)N[C@@H](CO)C(=O)N[C@@H](CC(N)=O)C(=O)N[C@@H](CCC(N)=O)C(=O)N[C@@H](CCC(=O)O)C(=O)N[C@@H](CCCNC(=N)N)C(=O)NCC(=O)N[C@@H](C)C(=O)N[C@@H](CCCNC(=N)N)C(=O)N[C@@H](C)C(=O)N[C@@H](CCCNC(=N)N)C(=O)N[C@@H](CC(C)C)C(N)=O)[C@@H](C)CC)C(C)C)[C@@H](C)O` [GRF(1-44)-NH2, reference compound], the “Potency of GRF Analogs Relative to GRF(1-44)-NH2” value in data set [1] is recorded as 1.00.

In the case of “HVDAIFTNSYRKVLAQLSARKLLQDIMSR-NH2 [[His^1,Val^2,Ala^15]-GRF(1-29)-NH2]”, the “Potency of GRF Analogs Relative to GRF(1-44)-NH2” value in data set [1] is reported as 2.58. Besides, the “Half Life (t1/2)” value in data set [2] is 1 h.

As to `CC[C@H](C)[C@H](NC(=O)[C@H](C)NC(=O)[C@H](CC(=O)O)NC(=O)[C@H](C)NC(=O)[C@@H](N)Cc1ccc(O)cc1)C(=O)N[C@@H](Cc1ccccc1)C(=O)N[C@H](C(=O)N[C@@H](CC(N)=O)C(=O)N[C@@H](CO)C(=O)N[C@@H](Cc1ccc(O)cc1)C(=O)N[C@@H](CCCNC(=N)N)C(=O)N[C@@H](CCCCN)C(=O)N[C@H](C(=O)N[C@@H](CC(C)C)C(=O)NCC(=O)N[C@@H](CCC(N)=O)C(=O)N[C@@H](CC(C)C)C(=O)N[C@@H](CO)C(=O)N[C@@H](C)C(=O)N[C@@H](CCCNC(=N)N)C(=O)N[C@@H](CCCCN)C(=O)N[C@@H](CC(C)C)C(=O)N[C@@H](CC(C)C)C(=O)N[C@@H](CCC(N)=O)C(=O)N[C@@H](CC(=O)O)C(=O)N[C@H](C(=O)N[C@@H](CCSC)C(=O)N[C@@H](CO)C(=O)N[C@@H](CCCNC(=N)N)C(N)=O)[C@@H](C)CC)C(C)C)[C@@H](C)O` [GRF(1-29)-NH2, reference compound], the “Potency of GRF Analogs Relative to GRF(1-44)-NH2” value in data set [1] came to 0.71. Also, the “Half Life (t1/2)” value in data set [2] stood at 0.217 h.

Regarding “YADAIFTNSYRKVLAQLSARKLLQDIMSR-NH2 [[Ala^15]-GRF(1-29)-NH2, reference compound]”, the “Half Life (t1/2)” value in data set [2] is 0.283 h.

For “HIDAIFTNSYRKVLAQLSARKLLQDIMSR-NH2 [[His^1,Ile^2,Ala^15]-GRF(1-29)-NH2]”, in data set [1], the “Potency of GRF Analogs Relative to GRF(1-44)-NH2” value stood at 1.24.

Regarding “HVDAIFTNSYRKVLAQLSARKLLQDILSRQQG [[His^1,Val^2,Ala^15,Leu^27]-GRF(1-32)-OH]”, the “Potency of GRF Analogs Relative to GRF(1-44)-NH2” value in data set [1] is 2.40. For the same compound, the “Half Life (t1/2)” value in data set [2] was determined as 1 h.

For “YVDAIFTNSYRKVLAQLSARKLLQDILSRQQG [[Val^2,Ala^15,Leu^27]-GRF(1-32)-OH]”, the “Half Life (t1/2)” value in data set [2] stood at 1.17 h.
